Results on 3 molecules are retold here after patent US10905123B2, “Herbicidal compounds” (Syngenta Participations AG, priority 2015, dated 2021).

Structures are written as SMILES.

What all share (assay type): in vivo
Conditions in all cases: Rate 1000 g/ha; evaluated after 13 days

Assay [1] concerns Zea mays (ZEAMX). In words: B1a pre-emergence herbicidal activity. The procedure:
(§1) Seeds of a variety of test species were sown in standard soil in pots: Amaranthus retroflexus (AMARE), Setaria faberi (SETFA), Zea mays (ZEAMX), Abutilon threophrasti (ABUTH), Echinochloa crus-galli (ECHCG), Lolium perenne (LOLPE). After cultivation for one day (pre-emergence) under controlled conditions in a glasshouse (at 24/16° C., day/night; 14 hours light; 65% humidity), the plants were sprayed with an aqueous spray solution derived from the formulation of the technical active ingredient in acetone/water (50:50) solution containing 0.5% Tween 20 (polyoxyethelyene sorbitan monolaurate, CAS RN 9005-64-5). The test plants were then grown in a glasshouse under controlled conditions (at 24/16° C., day/night; 14 hours light; 65% humidity) and watered twice daily. After 13 days, the test was evaluated (5=total damage to plant; 0=no damage to plant). Results are shown below in Table 4

For assay [2], the system named is Lolium perenne (LOLPE). The assay is described as follows: B1a pre-emergence herbicidal activity. The procedure: as §1
Assay [3] deals with Amaranthus retroflexus (AMARE). In words: B1a pre-emergence herbicidal activity. How it is done:
as §1

Assay [4] concerns Echinochloa crus-galli (ECHCG). In words: B1a pre-emergence herbicidal activity. The procedure: as §1
The test system of assay [5] is Setaria faberi (SETFA). The assay is described as follows: B1a pre-emergence herbicidal activity. How it is done: as §1
In assay [6] the test system is Abutilon threophrasti (ABUTH). In words: B1a pre-emergence herbicidal activity. How it is done: as §1
For assay [7], the system named is Zea mays (ZEAMX). The assay is described as follows: B2a post-emergence herbicidal activity. How it is done: (§2) Seeds of a variety of test species were sown in standard soil in pots: Amaranthus retroflexus (AMARE), Setaria faberi (SETFA), Zea mays (ZEAMX), Abutilon threophrasti (ABUTH), Echinochloa crus-galli (ECHCG), Lolium perenne (LOLPE). After 8 days cultivation (post-emergence) under controlled conditions in a glasshouse (at 24/16° C., day/night; 14 hours light; 65% humidity), the plants were sprayed with an aqueous spray solution derived from the formulation of the technical active ingredient in acetone/I water (50:50) solution containing 0.5% Tween 20 (polyoxyethelyene sorbitan monolaurate, CAS RN 9005-64-5). The test plants were then grown in a glasshouse under controlled conditions (at 24/16° C., day/night; 14 hours light; 65% humidity) and watered twice daily. After 13 days, the test was evaluated (5=total damage to plant; 0=no damage to plant).

Assay [8] has as its system Lolium perenne (LOLPE). In words: B2a post-emergence herbicidal activity. The procedure:
as §2

The test system of assay [9] is Amaranthus retroflexus (AMARE). In words: B2a post-emergence herbicidal activity. How it is done:
as §2

In assay [10] the test system is Echinochloa crus-galli (ECHCG). In words: B2a post-emergence herbicidal activity. How it is done:
as §2

For assay [11], the system named is Setaria faberi (SETFA). In words: B2a post-emergence herbicidal activity. The procedure: as §2
For assay [12], the system named is Abutilon threophrasti (ABUTH). In words: B2a post-emergence herbicidal activity. How it is done: as §2
Assay [13] has as its system Triticum aestivium (TRZAW). The assay is described as follows: B1 pre-emergence herbicidal activity. The procedure: as §1, with “Triticum aestivium (TRZAW), Oryza sativa (ORYSA), Avena fatua (AVEFA), Alopecurus myosuroides (ALOMY),” for “Amaranthus retroflexus (AMARE), Setaria faberi (SETFA), Zea mays (ZEAMX), Abutilon threophrasti (ABUTH),”, “plant).” for “plant). Results are shown below in Table 4”

In assay [14] the test system is Lolium perenne (LOLPE). The assay is described as follows: B1 pre-emergence herbicidal activity. The procedure:
as §1, with “Triticum aestivium (TRZAW), Oryza sativa (ORYSA), Avena fatua (AVEFA), Alopecurus myosuroides (ALOMY),” for “Amaranthus retroflexus (AMARE), Setaria faberi (SETFA), Zea mays (ZEAMX), Abutilon threophrasti (ABUTH),”, “plant).” for “plant). Results are shown below in Table 4”

Assay [15] concerns Avena fatua (AVEFA). In words: B1 pre-emergence herbicidal activity. How it is done:
as §1, with “Triticum aestivium (TRZAW), Oryza sativa (ORYSA), Avena fatua (AVEFA), Alopecurus myosuroides (ALOMY),” for “Amaranthus retroflexus (AMARE), Setaria faberi (SETFA), Zea mays (ZEAMX), Abutilon threophrasti (ABUTH),”, “plant).” for “plant). Results are shown below in Table 4”

Assay [16] has as its system Oryza sativa (ORYSA). In words: B1 pre-emergence herbicidal activity. The procedure: as §1, with “Triticum aestivium (TRZAW), Oryza sativa (ORYSA), Avena fatua (AVEFA), Alopecurus myosuroides (ALOMY),” for “Amaranthus retroflexus (AMARE), Setaria faberi (SETFA), Zea mays (ZEAMX), Abutilon threophrasti (ABUTH),”, “plant).” for “plant). Results are shown below in Table 4”

For assay [17], the system named is Echinochloa crus-galli (ECHCG). The assay is described as follows: B1 pre-emergence herbicidal activity. The procedure: as §1, with “Triticum aestivium (TRZAW), Oryza sativa (ORYSA), Avena fatua (AVEFA), Alopecurus myosuroides (ALOMY),” for “Amaranthus retroflexus (AMARE), Setaria faberi (SETFA), Zea mays (ZEAMX), Abutilon threophrasti (ABUTH),”, “plant).” for “plant). Results are shown below in Table 4”

Assay [18] deals with Alopecurus myosuroides (ALOMY). The assay is described as follows: B1 pre-emergence herbicidal activity. The procedure:
as §1, with “Triticum aestivium (TRZAW), Oryza sativa (ORYSA), Avena fatua (AVEFA), Alopecurus myosuroides (ALOMY),” for “Amaranthus retroflexus (AMARE), Setaria faberi (SETFA), Zea mays (ZEAMX), Abutilon threophrasti (ABUTH),”, “plant).” for “plant). Results are shown below in Table 4”

Assay [19] concerns Triticum aestivium (TRZAW). In words: B2 post-emergence herbicidal activity. The procedure: as §2, with “Triticum aestivium (TRZAW), Oryza sativa (ORYSA), Avena fatua (AVEFA), Alopecurus myosuroides (ALOMY),” for “Amaranthus retroflexus (AMARE), Setaria faberi (SETFA), Zea mays (ZEAMX), Abutilon threophrasti (ABUTH),”, “acetone/water” for “acetone/I water”
For assay [20], the system named is Lolium perenne (LOLPE). The assay is described as follows: B2 post-emergence herbicidal activity. How it is done: as §2, with “Triticum aestivium (TRZAW), Oryza sativa (ORYSA), Avena fatua (AVEFA), Alopecurus myosuroides (ALOMY),” for “Amaranthus retroflexus (AMARE), Setaria faberi (SETFA), Zea mays (ZEAMX), Abutilon threophrasti (ABUTH),”, “acetone/water” for “acetone/I water”

For assay [21], the system named is Avena fatua (AVEFA). The assay is described as follows: B2 post-emergence herbicidal activity. How it is done:
as §2, with “Triticum aestivium (TRZAW), Oryza sativa (ORYSA), Avena fatua (AVEFA), Alopecurus myosuroides (ALOMY),” for “Amaranthus retroflexus (AMARE), Setaria faberi (SETFA), Zea mays (ZEAMX), Abutilon threophrasti (ABUTH),”, “acetone/water” for “acetone/I water”

The test system of assay [22] is Oryza sativa (ORYSA). In words: B2 post-emergence herbicidal activity. How it is done: as §2, with “Triticum aestivium (TRZAW), Oryza sativa (ORYSA), Avena fatua (AVEFA), Alopecurus myosuroides (ALOMY),” for “Amaranthus retroflexus (AMARE), Setaria faberi (SETFA), Zea mays (ZEAMX), Abutilon threophrasti (ABUTH),”, “acetone/water” for “acetone/I water”
The test system of assay [23] is Echinochloa crus-galli (ECHCG). The assay is described as follows: B2 post-emergence herbicidal activity. The procedure:
as §2, with “Triticum aestivium (TRZAW), Oryza sativa (ORYSA), Avena fatua (AVEFA), Alopecurus myosuroides (ALOMY),” for “Amaranthus retroflexus (AMARE), Setaria faberi (SETFA), Zea mays (ZEAMX), Abutilon threophrasti (ABUTH),”, “acetone/water” for “acetone/I water”

In assay [24] the test system is Alopecurus myosuroides (ALOMY). In words: B2 post-emergence herbicidal activity. The procedure: as §2, with “Triticum aestivium (TRZAW), Oryza sativa (ORYSA), Avena fatua (AVEFA), Alopecurus myosuroides (ALOMY),” for “Amaranthus retroflexus (AMARE), Setaria faberi (SETFA), Zea mays (ZEAMX), Abutilon threophrasti (ABUTH),”, “acetone/water” for “acetone/I water”

In the case of `CCOC(=O)C(=O)N(C)c1cn(-c2cncnc2)nc1C(F)(F)F` [Compound A43], the “Control of ZEAMX after pre-emergence application (damage score 0-5)” value in the assay with Zea mays (ZEAMX) [1] turned out to be 0. For the same molecule, the “Control of LOLPE after pre-emergence application (damage score 0-5)” value in the assay on Lolium perenne (LOLPE) [2] was determined as 0. Moreover, the “Control of AMARE after pre-emergence application (damage score 0-5)” value in [3] amounted to 0. In assay [4], the “Control of ECHCG after pre-emergence application (damage score 0-5)” value is 0. Moreover, the “Control of SETFA after pre-emergence application (damage score 0-5)” value in the assay on Setaria faberi (SETFA) [5] turned out to be 0. Besides, the “Control of ABUTH after pre-emergence application (damage score 0-5)” value in assay [6] is 0. Also, the “Control of ZEAMX after post-emergence application (damage score 0-5)” value with Zea mays (ZEAMX) [7] is given as 2. Further, in the assay on Lolium perenne (LOLPE) [8], the “Control of LOLPE after post-emergence application (damage score 0-5)” value is recorded as 0. In addition, the “Control of AMARE after post-emergence application (damage score 0-5)” value in assay [9] is recorded as 1. In addition, in assay [10], the “Control of ECHCG after post-emergence application (damage score 0-5)” value is on record as 1. The “Control of SETFA after post-emergence application (damage score 0-5)” value with Setaria faberi (SETFA) [11] was 1. Further, in assay [12], the “Control of ABUTH after post-emergence application (damage score 0-5)” value is 2.

In the case of `Cc1nn(-c2cncnc2)cc1N(C)C(=O)Nc1c(C)noc1C` [Compound A45], the “Control of ZEAMX after pre-emergence application (damage score 0-5)” value with Zea mays (ZEAMX) [1] was found to be 0. The “Control of LOLPE after pre-emergence application (damage score 0-5)” value in the assay on Lolium perenne (LOLPE) [2] came to 0. Moreover, the “Control of AMARE after pre-emergence application (damage score 0-5)” value in [3] is recorded as 0. Besides, the “Control of ECHCG after pre-emergence application (damage score 0-5)” value in [4] was 0. Moreover, the “Control of SETFA after pre-emergence application (damage score 0-5)” value in the assay with Setaria faberi (SETFA) [5] came out at 0. In assay [6], the “Control of ABUTH after pre-emergence application (damage score 0-5)” value turned out to be 0. In addition, the “Control of ZEAMX after post-emergence application (damage score 0-5)” value in the assay on Zea mays (ZEAMX) [7] is 0. Further, the “Control of LOLPE after post-emergence application (damage score 0-5)” value in the assay with Lolium perenne (LOLPE) [8] stood at 0. The “Control of AMARE after post-emergence application (damage score 0-5)” value in assay [9] worked out at 0. In assay [10], the “Control of ECHCG after post-emergence application (damage score 0-5)” value is recorded as 0. For the same molecule, the “Control of SETFA after post-emergence application (damage score 0-5)” value in the assay on Setaria faberi (SETFA) [11] is 0. Also, in assay [12], the “Control of ABUTH after post-emergence application (damage score 0-5)” value stood at 0.

For the molecule `Cc1nn(-c2cncnc2)cc1N(C)C1=NCCCCO1` [Compound A53], in assay [13], the “Control of TRZAW after pre-emergence application (damage score 0-5)” value stood at 0. Moreover, in the assay on Lolium perenne (LOLPE) [14], the “Control of LOLPE after pre-emergence application (damage score 0-5)” value was 0. The “Control of AVEFA after pre-emergence application (damage score 0-5)” value with Avena fatua (AVEFA) [15] is on record as 0. In addition, in the assay with Oryza sativa (ORYSA) [16], the “Control of ORYSA after pre-emergence application (damage score 0-5)” value amounted to 0. Besides, the “Control of ECHCG after pre-emergence application (damage score 0-5)” value in assay [17] is 0. In assay [18], the “Control of ALOMY after pre-emergence application (damage score 0-5)” value worked out at 0. In assay [19], the “Control of TRZAW after post-emergence application (damage score 0-5)” value is 0. In addition, the “Control of LOLPE after post-emergence application (damage score 0-5)” value in the assay on Lolium perenne (LOLPE) [20] was determined as 1. Further, the “Control of AVEFA after post-emergence application (damage score 0-5)” value with Avena fatua (AVEFA) [21] came to 0. The “Control of ORYSA after post-emergence application (damage score 0-5)” value in the assay with Oryza sativa (ORYSA) [22] is reported as 0. The “Control of ECHCG after post-emergence application (damage score 0-5)” value in assay [23] stood at 0. Further, the “Control of ALOMY after post-emergence application (damage score 0-5)” value in assay [24] was found to be 0.
